In PMC12005989, “Purification, identification, and in silico screening of a multifunctional octapeptide from semen armeniacae glutelin-2 hydrolysates: restraining mechanisms to Keap1 and ACE, stability, and ferrous-transport efficiency” (Frontiers in Nutrition, 2025):
Read-outs that look alike come from different tables or passages of the source. Ends that are not written are not given here.

What was measured:
[1] = Hydroxyl radical quenching, β-deoxyribose oxidation method; settings: 100 μg/mL, mean ± SD, triplicate
Procedure: Next, the purification of BAG-2H is a two-step process: first, BAG-2H solution (1 g/L) was subjected to ultra-filtration on an ultra-membrane (filter aperture of 220 nm, Jingfei Membrane Equipment Factory, Luzhou, China). Next, the ultra-filtrate solution (2 mL) was chromatographically purified citing the modified procedures from Li et al. ([30]). Pre-balanced G-15 gel was loaded into a HS-MG-125 chromatographic column (Huasheng Chromatography Tech. Co., Ltd., Wuxi, China). After the BAG-2H ultra-filtrate solution has completely sunk into the column plane, the gel chromatographic column was sealed and eluted using dH2O with a constant velocity of 2.4 mL/min and monitor wavelength of 220 nm. An automatic collector (BT-160I, Thirdli Collection Equipment Co., Ltd., Guangzhou, China) was used to collect the elution, and the collection tube was changed every 5 min ([34]). After 400 min, the profiles of absorbance at 220 nm against elution time were drawn, and the separation fractions were freeze-dried using the EHI-220D lyophilizer. The ACE-inhibitory, ferrous-binding, and hydroxyl radical quenching abilities of the separation fractions were detected citing the hippuric acid ([50]), […]. During screening of the separation fractions, ACE-inhibitory and hydroxyl radical quenching abilities were the primary indexes, and the amino acid sequences of the selected fraction were analyzed.
The free radical quenching ability of samples, including superoxide, 2,2′-hydrazine-bis (3-ethylbenzothiazolin-6-sulfonic acid) diamine salt cation (ABTS^+), and hydroxyl radicals, was determined using the pyrogallol auto-oxidation, potassium persulfate, and β-deoxyribose oxidation methods, according to the same procedures from Tyagi et al. ([6]), Lin et al. ([2]), and Wang et al. ([35]), respectively. […]
Physicochemical properties and functionalities of BAG-2H peptides, including antihypertension and antioxidant activity, were in silico analyzed with the AHTpin^2 and Peptide Ranker server^3 databases ([39]), respectively. […]

[2] = Superoxide radical quenching, pyrogallol auto-oxidation method; settings: 100 μg/mL, mean ± SD, triplicate
Procedure: (§1) The free radical quenching ability of samples, including superoxide, 2,2′-hydrazine-bis (3-ethylbenzothiazolin-6-sulfonic acid) diamine salt cation (ABTS^+), and hydroxyl radicals, was determined using the pyrogallol auto-oxidation, potassium persulfate, and β-deoxyribose oxidation methods, according to the same procedures from Tyagi et al. ([6]), Lin et al. ([2]), and Wang et al. ([35]), respectively. Comparison was conducted when the samples were replaced by glutathione (0.1 mg/mL).
(§2) As described by Wu et al. ([41]), the simulative gastric digestive fluid consisted of sodium chloride (0.18 mol/L), ultrapure water (180 mL), and 0.40 mg/mL of pepsin. The simulation intestinal digestive juice was composed of NaHCO3 (0.625 g/mL), bile salt (3 g/100 mL), pancreatin (0.35 mg/mL), and 180 mL ultrapure water. In a glass triangle flask, 300 mg of the antihypertensive and antioxidant BAG-2H peptides, 60 mL of ultrapure water, and 150 mL of the simulative gastric fluid were mixed thoroughly. The flask was placed at 37°C in an EDZF-C002 thermostatic vibrator with shaking rate of 140 rpm. After 90 min, 180 mL of the simulative intestinal hydrolysis fluid was added and stirred at 37°C for 2 h. To stop the hydrolysis, the digestion solution in the flask was boiled for 6 min and then cooled by running water to room temperature. The ACE inhibition capacity and antioxidant ability of the treated BAG-2H peptides were detected and compared to those of the undigested BAG-2H peptides.

[3] = Ferric reducing ability, Prussian blue method; settings: 100 μg/mL, pH 6.8 phosphate buffer, determined at 700 nm, mean ± SD, triplicate
Procedure: Ferric reducing ability was defined as the ability of antioxidants to provide protons, which was administrated according to the Prussian blue method ([2]). A total 1 mL of BAG-2H peptide solution (100 μg/mL, dissolved in 0.2 mol/L of phosphate buffer, pH 6.8) was reacted with potassium ferricyanide (10 mg/mL, 4 mL) in the EDZF-C002 thermostatic vibrator (50°C, 220 rpm) for 30 min. The reaction solution was cooled to 25 ± 1°C and precipitated using an equal volume of 100 mg/mL trichloroacetic acid for 10 min. Then, the reaction solution was centrifuged at 3000 × g for 25 min, and 1 mL of the upper solution was pipetted and reacted with 1 mg/mL of FeCl3 (1.2 mL) to produce Prussian blue (potassium ferrocyanide). The concentration of potassium ferrocyanide produced was positively correlated with the ferric reducing ability of the sample ([37]), which was determined at 700 nm using a HD-UV90 ultraviolet–visible spectrophotometer (Holder Technology Co. LTD, Weifang, China).
As described by Wu et al. ([41]), the simulative gastric digestive fluid consisted of sodium chloride (0.18 mol/L), ultrapure water (180 mL), and 0.40 mg/mL of pepsin. […] The ACE inhibition capacity and antioxidant ability of the treated BAG-2H peptides were detected and compared to those of the undigested BAG-2H peptides.

[4] = ABTS+ radical quenching, potassium persulfate method; settings: 100 μg/mL; mean ± SD, triplicate
Procedure: as §1
as §2, with “To stop the hydrolysis, the digestion solution in the flask was boiled for 6 min and then cooled by running water to room temperature.” left out

[5] = Ferrous solubility of ferrous chelate during simulated gastrointestinal digestion; type: in vitro ADME; settings: soluble ferrous by o-phenanthroline every 30 min
Procedure: Next, the intestinal digestive fluid was added, and the digestion was continued at pH 6.8 for 2 h in the EDZF-C002 thermostatic vibrator ([…], 175 rpm).

[6] = cited from earlier work
Excerpt: The Asp., Val, Tyr, Phe, and Gly in […] can effectively bind to ferrous ions ([16], [20]). The γ-carboxyl group in Asp and phenolic hydroxyl groups in Tyr and Phe can form ionic bond with ferrous ions ([17]). Ascribed to the excellent metal ion-chelating capacity, Gly is an ideal ingredient for iron or calcium supplement ([45]). In addition, the carbo ...

ACE = test system: ACE; set-up: method as in 2 sources, ref 34 = [34]; doi:10.1016/j.fbio.2023.103419; 34. Zheng Y Ma J Guo Y Zhuang Y Yang Z Zhu Z . In silico screening and characterization, inhibition mechanism on ACE, and stability of antihypertensive peptides with Zn-chelating capacity identified f ||| ref 45 = [45]; PMID 38470110; doi:10.1021/acs.jafc.4c00829; 45. Martineau-Côté D Achouri A Karboune S L’Hocine L . Antioxidant and angiotensin-converting enzyme inhibitory activity of Faba bean-derived peptides after in vitro gastrointestinal digestion: insigh; settings: read-out: ACE-inhibitory IC50, cited from earlier work
[7] = Gastrointestinal stability of peptide (simulated gastric and intestinal digestion); type: in vitro ADME; settings: simulated gastric fluid (pepsin 0.40 mg/mL) 90 min, then intestinal fluid (pancreatin, bile salt) 2 h, 37°C; read-out retained activity; p > 0.05
Procedure: as §2

[8] = target: T1, angiotensin-I-converting enzyme (ACE) (Oryctolagus cuniculus, UniProt P12822); experiment: ACE-inhibitory kinetics, Lineweaver–Burk plot; type: biochemical, Rabbit; settings: inhibitor 0.011–0.055 mmol/L, HHL 0.13–1.32 mmol/L, Vmax not altered, Km increased
T1 construct: Rabbit lungs ACE (0.1 U) was obtained from Sigma-Aldrich (St. Louis, MO, USA); purchased Sigma-Aldrich (St. Louis, MO, USA); host or cells: rabbit lung (tissue-derived)
T1 sequence (P12822 34-1310): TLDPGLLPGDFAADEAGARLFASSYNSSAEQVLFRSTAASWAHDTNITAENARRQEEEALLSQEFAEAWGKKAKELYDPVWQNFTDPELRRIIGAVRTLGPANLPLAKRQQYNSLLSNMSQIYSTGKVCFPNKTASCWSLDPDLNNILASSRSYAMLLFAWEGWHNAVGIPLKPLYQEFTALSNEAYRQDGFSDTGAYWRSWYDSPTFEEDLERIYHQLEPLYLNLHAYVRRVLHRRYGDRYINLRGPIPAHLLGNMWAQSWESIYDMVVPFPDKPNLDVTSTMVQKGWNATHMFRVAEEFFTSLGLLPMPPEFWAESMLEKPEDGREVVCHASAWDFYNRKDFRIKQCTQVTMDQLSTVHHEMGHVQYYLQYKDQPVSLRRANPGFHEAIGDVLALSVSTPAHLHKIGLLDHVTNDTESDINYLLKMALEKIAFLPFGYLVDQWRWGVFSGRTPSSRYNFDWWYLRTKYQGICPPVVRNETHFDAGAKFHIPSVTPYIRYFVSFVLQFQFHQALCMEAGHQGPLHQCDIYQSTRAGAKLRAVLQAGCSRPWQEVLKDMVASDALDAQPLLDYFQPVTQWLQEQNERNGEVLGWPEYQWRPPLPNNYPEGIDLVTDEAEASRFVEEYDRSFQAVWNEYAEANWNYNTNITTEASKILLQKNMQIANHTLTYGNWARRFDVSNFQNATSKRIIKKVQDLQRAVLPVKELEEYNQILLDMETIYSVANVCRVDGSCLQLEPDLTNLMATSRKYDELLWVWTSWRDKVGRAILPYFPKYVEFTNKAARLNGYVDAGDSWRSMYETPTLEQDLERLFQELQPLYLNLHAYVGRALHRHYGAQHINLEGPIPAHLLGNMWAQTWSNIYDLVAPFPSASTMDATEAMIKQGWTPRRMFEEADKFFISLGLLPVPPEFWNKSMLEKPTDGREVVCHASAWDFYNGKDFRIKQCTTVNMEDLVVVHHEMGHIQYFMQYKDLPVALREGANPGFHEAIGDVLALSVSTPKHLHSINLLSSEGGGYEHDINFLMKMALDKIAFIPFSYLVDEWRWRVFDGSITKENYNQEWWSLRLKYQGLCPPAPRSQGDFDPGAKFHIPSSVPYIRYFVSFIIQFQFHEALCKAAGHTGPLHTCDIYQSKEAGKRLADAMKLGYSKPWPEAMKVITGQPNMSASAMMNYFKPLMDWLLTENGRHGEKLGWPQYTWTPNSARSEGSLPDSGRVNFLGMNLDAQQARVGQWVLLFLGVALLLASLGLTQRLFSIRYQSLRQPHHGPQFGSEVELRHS
Excerpt: The hippuric acid method ([50]) was used to measure the samples’ restraining capacity against ACE citing the same procedures from Zheng et al. ([34]). The absorbance of the reaction solution at 228 nm was the hippuric acid content and was proportional to ACE activity; therefore, the restraining capacity of samples toward ACE was defined as the percentage reduction in the absorption at 228 nm between the control and sample groups. In addition, the ACE-inhibitory kinetic by BAG-2H peptides (0.011–0.055 mmol/L) was investigated employing Lineweaver–Burk plot ([36]).

Caco-2 cell monolayers = experiment: Ferrous transport across Caco-2 cell monolayers; type: in vitro ADME; settings: Caco-2 transwell, apical to basolateral, chelate 320 μg/mL, 37°C, o-phenanthroline, p < 0.05
Procedure: In a 24-well transwell culture plate, Caco-2 cells (0.75 × 10^6 cells/cm^2) were cultivated by Dulbecco’s modified Eagle’s medium that contained fetal bovine serum (20 g/L), streptomycin (1 μg/μL), penicillin (1 μg/μL), and neomycin (1 μg/μL) and refreshed every 48 h. After 12–14 d of incubation at 5% CO2 and 37°C, the transepithelial electrical resistance was more than 400 Ω·cm^2 and a monolayer Caco-2 cell mode was formed. Afterward, the medium was removed, and Hank’s Balanced Salt Solution was added. After 30 min of cultivation at 5% CO2 and 37°C, Hank’s Balanced Salt Solution was removed from the apical side and BAG-2H peptide-ferrous chelates (320 μg/mL) were added and then cultivated at 5% CO2 and 37°C for 150 min. Every 30 min, the o-phenanthroline method was used to quantify the ferrous amounts of cultivate solution in the basolateral side ([38]).

[9] = target: T1, angiotensin-I-converting enzyme (ACE); experiment: ACE restraining capacity, hippuric acid method; type: biochemical, Rabbit; settings: substrate HHL, absorbance 228 nm, IC50 from regression of inhibition against concentration, tests in triplicate, read-out: ACE-inhibitory activity (IC50)

## N[C@@H](CCC(=O)N[C@@H](CS)C(=O)NCC(=O)O)C(=O)O [Glutathione, glutathione, reference compound]
[1]
  ·OH scavenging activity, before gastrointestinal: 95.56% ± 1.38%a
[2]
  Superoxide radical scavenging ability, before gastrointestinal: 90.52% ± 4.97%a
[3]
  Ferric reducing ability, before gastrointestinal: 0.675 ± 0.019a
[4]
  ABTS+ scavenging activity, before gastrointestinal: 79.25 ± 1.67%a

## [Cl][Fe][Cl] [ferrous chloride]
[5]; simulated gastric fluid with pepsin, pH 1.9, 37°C, 175 rpm
  Ferrous solubility during gastric digestion (0–90 min): relatively stable
[5]; simulated intestinal fluid, pH 6.8, 37°C
  Ferrous solubility during intestinal digestion (91–180 min): apparently decreased

## FEDPEFE [scallop skirts peptide]
[6]; scallop skirts peptide
  Ferrous chelating ability: 9.39 mg/g

## GCHHY
ACE; peptide from millet bran glutelin-2
  IC50: 147 µM

## PVDFAGFY
[7]
  Stability of antioxidant activity and ACE-inhibitory capacity during gastrointestinal digestion: stable during gastrointestinal digestion

## PVDFAGFY-ferrous chelate: ferrous chelate of PVDFAGFY prepared with ferrous chloride (also: ferrous chelate)
[8]
  ACE-inhibitory mode: competitive ACE inhibitor
Caco-2 cell monolayers; FeCl2 0.3 mg/mL, HBSS, 150 min
  Ferrous transmembrane absorption across Caco-2 monolayer compared with ferrous chloride: higher than that of ferrous chloride
Caco-2 cell monolayers; ferrous lactate 0.3 mg/mL
  Ferrous transport across Caco-2 monolayer compared with ferrous lactate, 120–150 min: better at transporting iron across the monolayer of Caco-2 cells than ferrous lactate
[1]
  ·OH scavenging activity, before gastrointestinal: 79.37%
[1]; listed as PVDFAGFY-Fe
  ·OH scavenging activity, before gastrointestinal: 79.37% ± 4.21%b
[2]
  Superoxide radical scavenging ability, before gastrointestinal: 69.55%
[2]; listed as PVDFAGFY-Fe
  Superoxide radical scavenging ability, before gastrointestinal: 69.55% ± 3.41%b
[9]
  IC50: 101 µM
[3]; the values are: absorbance at 700 nm
  Ferric reducing ability, before gastrointestinal: 0.225 ± 0.012
[4]
  ABTS+ scavenging activity, before gastrointestinal: 35.18% ± 1.16%c

## SELE [millet bran globulin peptide]
[6]; millet bran globulin peptide
  Ferrous chelating ability: 7.93 mg/g

## VIPTEPPHA
ACE; peptide from Faba beans
  IC50: 260 µM
